Data as given in US20040241720A1, “Sodium activated potassium ion channel for therapeutic drug screening” (priority 2003, published 2004).
Blank lines part the entries; values can stand above or below the molecule they belong to.

Molecular target: T1, rSlo2 channels (Rattus norvegicus, UniProt Q9Z258)
T1 construct: expressed in transfected cells; host or cells: Xenopus laevis oocytes injected with capped cRNA (pOX vector); inside-out patches
T1 sequence (Q9Z258 1-1239): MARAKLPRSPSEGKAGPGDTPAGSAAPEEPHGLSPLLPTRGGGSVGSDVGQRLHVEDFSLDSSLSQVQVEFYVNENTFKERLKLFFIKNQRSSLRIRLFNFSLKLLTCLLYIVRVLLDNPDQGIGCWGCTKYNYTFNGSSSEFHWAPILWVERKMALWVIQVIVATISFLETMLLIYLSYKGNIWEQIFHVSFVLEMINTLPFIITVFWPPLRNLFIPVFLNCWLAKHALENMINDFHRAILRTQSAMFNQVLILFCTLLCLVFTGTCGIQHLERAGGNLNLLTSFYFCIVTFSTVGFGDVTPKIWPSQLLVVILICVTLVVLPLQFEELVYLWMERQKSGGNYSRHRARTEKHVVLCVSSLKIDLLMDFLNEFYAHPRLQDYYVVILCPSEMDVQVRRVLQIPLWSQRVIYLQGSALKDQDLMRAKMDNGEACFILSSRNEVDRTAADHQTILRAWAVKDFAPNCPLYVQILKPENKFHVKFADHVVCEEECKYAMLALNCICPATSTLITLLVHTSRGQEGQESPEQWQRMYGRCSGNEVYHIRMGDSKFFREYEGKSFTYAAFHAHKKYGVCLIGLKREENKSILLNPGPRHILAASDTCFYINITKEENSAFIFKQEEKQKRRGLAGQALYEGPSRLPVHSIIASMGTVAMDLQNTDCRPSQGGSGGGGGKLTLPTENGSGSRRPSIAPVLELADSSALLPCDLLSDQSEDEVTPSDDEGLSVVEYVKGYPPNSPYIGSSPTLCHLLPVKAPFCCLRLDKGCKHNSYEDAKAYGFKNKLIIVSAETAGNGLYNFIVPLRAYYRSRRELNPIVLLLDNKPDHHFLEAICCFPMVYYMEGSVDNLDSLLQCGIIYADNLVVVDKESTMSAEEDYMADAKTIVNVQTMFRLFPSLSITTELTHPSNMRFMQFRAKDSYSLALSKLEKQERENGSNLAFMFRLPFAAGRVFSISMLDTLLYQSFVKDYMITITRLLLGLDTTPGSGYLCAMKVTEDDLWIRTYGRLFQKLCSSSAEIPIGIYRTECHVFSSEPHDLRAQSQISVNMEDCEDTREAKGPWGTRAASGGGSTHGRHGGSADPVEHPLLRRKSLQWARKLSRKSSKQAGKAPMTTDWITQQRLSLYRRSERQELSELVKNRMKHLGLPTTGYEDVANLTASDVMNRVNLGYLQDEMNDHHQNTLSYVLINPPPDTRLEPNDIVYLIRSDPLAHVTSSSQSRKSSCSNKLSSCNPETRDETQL
Assay: Patch clamp of inside-out patches from Xenopus oocytes injected with rSlo2 cRNA
Format: cell-based
Experimental: FIG. 2a depicts current traces from an inside-out macropatch (2-3 MΩ electrode prior to seal formation) in the presence of 50 mM [Na+], FIG. 2a (i) and in the absence of [Na^+]i FIG. 2a (ii). Voltage steps (−70 mV to +70 mV) were applied in 10 mV increments from a holding potential of −70 mV. The calculated potassium equilibrium potential was −78 mV in these experiments. FIG. 2a (iii) The current-voltage relationship of the mean current obtained from 7 macropatches with a holding potential of −80 mV, and voltage steps from −80 to +80 mV in 10 mV increments FIG. 2a (iv) Plot of normalized IKNa obtained upon perfusion of inside-out patches with different Na^+ concentrations as indicated.
FIG. 2c depicts a current trace of an uninjected oocyte. […] For the macropatch experiments the pipette solution contained (in mM) 145 Na^+-gluconate, 5 KCI, 5 Ca^2+-gluconate, 3 Mg^2+-gluconate, 11 dextrose, 5 HEPES, pH 7.4 with NaOH. The bath solution contained (in mM): 110 KCI, 50 NaCI and 5 HEPES, pH 7.3 with KOH. NaCI was replaced by choline-Cl for the dose-response curve. In single channel experiments, the pipette solution contained (in mM) 80 K^+-gluconate, […], 5 HEPES, 2 MgCI2, pH 7.2 with KOH. The bath solution contained (in mM) 80 KCI, 80 NaCI or 80 cholineCl, 5 HEPES, 5 EGTA, pH 7.2 with KOH.
FIG. 5a (iii) depicts the current-voltage relationship of the mean current between 700-800 ms. The pipette solution contained (in mM) 80 K^+-gluconate, 80 Na^+-gluconate, 5 HEPES, 2 MgCI2, pH 7.2 with KOH. The bath solution contained (in mM) 80 KCI or 80 K^+-gluconate, 20 NaCI and 60 choline-Cl or 20 Na^+-gluconate and 120 dextrose, 5 HEPES, 5 EGTA, pH 7.2 with KOH. (b) (i) Dose response relationship for [Na+]i at 160 mM [CI]i or 10 mM [CI]i,. (ii) Dose response relationship for [CI]i at 80 mM [Na^+]i or 20 mM [Na^+]i. Currents for the dose response curves were measured and averaged over a 1 second interval at −60 mV and each patch was normalized to the current elicited in 80 mM [Na^+]i, and 160 mM [CI]i. Each experiment was completed within 120 seconds to minimize rundown and was perfused in order of decreasing [Na^+]i or [CI]i.
The single electrode patch clamp system was first used to analyze inside-out patches, and to investigate the properties of rSlo2 in the Xencpus oocyte expression system by transcribing cRNA and injecting it into oocytes.
To obtain efficient expression of rhSlo2.2 in Xencpus oocytes, the original rhSlo2.2 construct was cloned into pOX, a special vector optimized for oocyte expression. Capped cRNA was synthesized using the T3 mMessage mMachine kit (Ambion). rhSlo2.2 was linearized using NotI. Reactions were resuspended in nuclease-free water to a final concentration of 1.5 μg/μl. Oocytes were harvested from adult female Xenopus iaevis as described. Defolliculated oocytes were injected with approximately 75 ng of cRNA using a Drummond Nanojector. Injected oocytes were incubated at 19° C. in ND96 medium (in mM): 96 NaCl, 2 KCI, 1.8 CaCl2, 1 MgCl2, 5 HEPES, pH 7.5 with NaOH. Oocytes were analyzed 2-3 days after injection for single channel analysis or 3-6 days after injection for macroscopic current analysis.
Prior to recording, the vitelline membranes were mechanically removed. The contents of solutions used are described in the figure legends. […] Data were analyzed using pClamp 8.2 (Axon Instruments) and Sigmaplot 5 (Jandel Scientific) or Origin 5.0 (Microcal).

single channel activity (about 100 μM Ca^2+i, in the absence of Na^+i (data not shown)): inhibited | channel activity (presence of about 80 μM ~200 μM Ca^2+i (data not shown)): no effect
SMILES: [Ca+2] [Ca^2+i]

current as fraction of I max (55 mM Cl^−, 20 mM sodium ions, estimated from dose response plot): approximately 0.18 of I max | activation of rSlo2 by Cl^−i (seen only when Na^+i is also present): activated
SMILES: Cl [Cl^−]

increase of amplitude of macroscopic current in patches (sodium concentration at cytoplasmic side increased from 10 to 50 mM, inside-out patch): more than ten times
SMILES: [Na+] [Na^+]
